The nature of assay [1]: Inhibition of LPA-mediated ATX activation in human BJeH cells assessed as AKT phosphorylation level incubated for 30 mins by Western blot analysis. (In general: A western blot detects proteins with antibodies after separation by electrophoresis.)
A short description of assay [2]: Inhibition of LPA-mediated ATX activation in human BJeH cells assessed as ERK phosphorylation level incubated for 30 mins by Western blot analysis.

`C[C@H](CCC(=O)N1CCC(Oc2ccc([B-](F)(F)F)cc2)CC1)[C@H]1CC[C@H]2C3[C@@H](O)C[C@@H]4C[C@H](O)CC[C@]4(C)[C@H]3CC[C@]12C` (some centres not stated): the EC50 in assay [1] and in assay [2] was 100 nM throughout.
